Data as given in patent US20210379153A1, “COMBINATION THERAPIES COMPRISING SIRP ALPHA-BASED CHIMERIC PROTEINS” (Shattuck Labs, Inc., priority 2018, published 2021).
Entries after “also recorded” stand apart in the source; their conditions may differ.

Experiments:
[1] = system: IRF-inducible ISG reporter in RAW264.7 cells; test: RAW264.7-ISG interferon reporter cells co-cultured with A20 lymphoma cells; assay type: cell-based, mouse; conditions: monotherapy; 50 mg/mL proteins, 1 mg/mL anti-mCD20; 24 hours
Method: FIG. 8D: Macrophage:Toledo lymphoma co-cultures were harvested 2 hours into phagocytosis assays in the presence of rituximab ([…]), SIRPα-Fc-CD40L ([…]), or the combination of both agents. Macrophages were isolated by CD11b+ FACS, RNA was prepared, cDNA synthesized, and gene expression (IFNa1, IFNb1, CD80, and CD86) assessed by qRT-PCR. Fold change was calculated using DDCT and values obtained from the housekeeping gene ACTB, and the corresponding values from untreated samples. […] After 2 hours, co-cultures were isolated from tissue culture vessels and were stained with a fluorescently conjugated CD11b antibody to discriminate macrophages. Cells were then assessed by flow cytometry for the co-localization of fluorescent signal from both cells types. […] After 24-hours type I interferon induced luminescence was assessed using a luminometer. The maximum luminescence (RLU) from each experiment was set to 1, and all other samples were normalized accordingly. […]
Additionally, a macrophage reporter system was used to detect activation. […] After 24 hours, culture supernatant was collected and assessed for luciferase activity, which would indicate activation of a type I interferon response in the RAW-ISG reporter cells. […]

[2] = system: human donor red blood cells (RBCs); test: In vitro hemolysis assay, human red blood cells; assay type: cell-based
Method: FIG. 22B is a graph showing RBCs and test agents that were incubated at 37° C. for 24 hours and then the media was assessed at OD490 for changes in absorbance due to hemoglobin being released from lysing RBCs. […] FIG. 22D are graphs showing that peripheral blood was isolated from mice receiving three IP doses (300 μg) of the murine SIRPα-Fc-CD40L surrogate (arrows). Cell populations were assessed by flow cytometry and included CD20+ B cells, CD110+, CD4+/CD11c+, and CD8+/CD11c+ dendritic cells.
However, the in vitro systems used to test this question have significant limitations, including a complete lack of macrophages in the test system.

[3] = system: K562 (low EGFR-expressing CML cell line); test: Macrophage engulfment of K562 cells; assay type: cell-based, human
Raji cells = test: In vitro phagocytosis of Raji cells by human macrophages; assay type: cell-based
Text: To this end, in vitro tumor cell phagocytosis assays were established to determine whether SIRPα-Fc-CD40L enhanced macrophage-mediated phagocytosis of various tumor cell lines both alone and in combination with anti-CD20 antibodies.
Initially, a variety of CD20+ lymphoma (Toledo, Raji, and Ramos) cell lines were co-cultured with human monocyte-derived macrophages to assay the amount of phagocytosis promoted by the SIRPα(CD172a)-Fc-CD40L chimeric protein in the presence or absence of an anti-CD20 antibody.
Such synergistic effect was unexpected.
These experiments used an in vitro phagocytosis assay with human donor macrophages and several human tumor cell lines (e.g., Raji cells, a human Burkitt lymphoma tumor cell line), to test whether SIRPα-Fc-CD40L's blockade of the tumor cell antigen CD47 (“don't eat me signal”) could stimulate phagocytosis, and potentially synergize with the anti-CD20 antibody, Rituximab. FIG. 10A is a cartoon illustrating steps used in this assay.
Co-cultures of tagged Raji cells and macrophages were treated with a variety of chimeric protein and antibody combinations, including control IgGs with an anti-CD20 antibody (Rituximab), an anti-CD47 antibody (CC9, Celgene), the SIRPα(CD172a)-Fc-CD40L chimeric protein, and/or pembrolizumab (an anti-PD-1 antibody; […]/MK 3475, Merck). […] Such synergistic effect was unexpected.

[4] = system: type I interferon regulatory genes INFα1 and IFNβ1; test: Type I interferon response in Raji cell:macrophage co-cultures; assay type: cell-based, human
Method: FIG. 8D: Macrophage:Toledo lymphoma co-cultures were harvested 2 hours into phagocytosis assays in the presence of rituximab ([…]), SIRPα-Fc-CD40L ([…]), or the combination of both agents. Macrophages were isolated by CD11b+ FACS, RNA was prepared, cDNA synthesized, and gene expression (IFNa1, IFNb1, CD80, and CD86) assessed by qRT-PCR. Fold change was calculated using DDCT and values obtained from the housekeeping gene ACTB, and the corresponding values from untreated samples. […] After 2 hours, co-cultures were isolated from tissue culture vessels and were stained with a fluorescently conjugated CD11b antibody to discriminate macrophages. Cells were then assessed by flow cytometry for the co-localization of fluorescent signal from both cells types. Identical assays were set up where macrophages were pre-incubated for 1 hour with 20 μg/mL of a commercially available Fc block cocktail or with 20 μg/mL of a CD40 blocking antibody or with 5 μg/mL of a calreticulin blocking peptide. FIG. 8G: RAW 264.7-Lucia ISG cells were cultured with A20 lymphoma cells in the presence of […] of mSIRPα-Fc-CD40L, recombinant Fc-mCD40L, mSIRPα-Fc, or their combination, 1 mg/mL anti-mCD20, or the combination of mSIRPα-Fc-CD40L and anti-mCD20. After 24-hours type I interferon induced luminescence was assessed using a luminometer. The maximum luminescence (RLU) from each experiment was set to 1, and all other samples were normalized accordingly. Values from repeat experiments are shown.

[5] = system: A431 (high EGFR-expressing skin cancer cell line); test: Macrophage engulfment of A431 cells; assay type: cell-based, human; conditions: combination with anti-EGFR antibody (cetuximab); vs low EGFR-expressing tumor cells
tumors = test: In vivo tumor model, SIRPα-Fc-OX40L with checkpoint antibodies (Example 14); set-up: species or system mice
Method: The in vivo ability of combinations of the SIRPα-Fc-OX40L chimeric protein with anti-CTLA-4 antibodies or the SIRPα-Fc-OX40L chimeric protein with anti-PD-1 antibodies to target and treat tumors was determined.

[6] = system: HCC1954 (high Her2-expressing breast cancer cell line); test: Macrophage engulfment of HCC1954 cells; assay type: cell-based, human; conditions: combination with anti-Her2 antibody (trastuzumab); vs low Her2-expressing tumor cells
[7] = combination with anti-CTLA-4 antibody
[8] = combination with anti-PD-1 antibody

With “SIRPα-Fc-CD40L: generic name of the SIRPαECD-Fc-CD40LECD chimeric protein; human or murine version according to the experiment” the “interferon gene-driven luciferase activity (type I IFN response)” value [1] was “stimulates an increase in interferon gene-driven luciferase activity”, the hemolysis [2] was “did not reveal evidence of hemolysis” and the phagocytic activity ([3]; combination with cetuximab) was “no phagocytic activity”. For the same substance, the phagocytic activity ([3]; monotherapy) was “no phagocytic activity”, the “synergy in phagocytosis with anti-CD20 antibody” value (Raji cells; Fc receptors on the macrophages pre-blocked) was “synergy was lost” and the “phagocytosis activity by flow cytometry” value (Raji cells; combination with an anti-CD20 antibody, among treatment groups) was “greatest phagocytosis activity”. For the same substance, the “macrophage engulfment (phagocytosis) of tumor cells” value (Raji cells; combination with anti-CD20 antibody (Rituximab), listed as SIRPα(CD172a)-Fc-CD40L) was “most effective; also recorded: effective”, the “rate of tumor cells engulfed by macrophages (phagocytosis index)” value (Raji cells; combination with anti-CD20 antibody vs chimeric protein-alone and antibody-alone treatments) was “greater than the sum” and the stimulation of phagocytosis (Raji cells; combination with anti-CD20 antibody, CD40 pre-blocked) was “remained the same”. For the same substance, the IFNβ protein synthesis ([4]; combination with anti-CD20 antibody) was “significantly greater”, the “RNA expression of INFα1” value ([4]; combination with anti-CD20 antibody vs either component alone) was “significantly greater” and the “RNA expression of IFNβ1” value ([4]; combination with anti-CD20 antibody vs sum of alone treatments) was “greater than the sum”. The “macrophage engulfment of tumor cells” value [5] was “more effective”, the “rejection of primary tumor” value (tumors; combination of chimeric protein and antibody) was “able to reject primary tumor” and the survival (tumors; [7]) was “any survivors by the sixteenth day”. For the same substance, the tumor size (tumors; [7]) was “effective in reducing tumor size”, the survival (tumors; [8]) was “any survivors by the sixteenth day” and the tumor size (tumors; [8]) was “effective in reducing tumor size”. The “macrophage engulfment of tumor cells” value [6] was “more effective”.
